Measurements: US11198687B2, “Heteroaryl allosteric modulators of nicotinic acetylcholine receptors” (Merck Sharp & Dohme Corp., priority 2017, dated 2021)
Where two headings read alike, the source gives them in different places.

Molecular target: human α7 nAChR (Homo sapiens, UniProt P36544)
Assay: Automated patch-clamp electrophysiology functional assay (Assay A)
Type: cell-based
Settings: IonFlux HT whole-cell population patch, HEK cell line stably expressing human RIC-3 and human α7, 40 μM acetylcholine
Description: The α7 nAChR positive allosteric modulator (PAM) activity of the present compounds may be tested using assays known in the art. […] The assay was performed using the IonFlux HT in a whole-cell, population patch configuration. See Golden et al. Assay Drug Dev. Technol. (2011) 9:608-619. The compounds were assessed for their ability to modulate the function of the human α7 nAChR stably expressed in a HEK cell line both in the presence, and in the absence of the natural α7 agonist acetylcholine. By performing a series of such measurements at different concentrations, the effective concentration of the α7 nAChR PAMs (EC50) was determined. See Spencer et al. Assay Drug Dev. Technol. (2012) 10:313-324.
Direct activation of α7 (agonism), and potentiation of acetylcholine-evoked α7 currents was determined as follows:
Automated Patch-Clamp Electrophysiology Functional Assay (Assay A)
Automated patch-clamp electrophysiology was performed using the IonFlux HT (Fluxion Biosciences Inc., San Francisco, Calif.) in the whole-cell, population patch configuration. Test compounds were assessed for their ability to modulate the function of the α7 nicotinic acetylcholine receptor both in the presence, and in the absence of the natural α7 agonist acetylcholine. A HEK cell line stably expressing both human RIC-3 and human α7 (PrecisION hnAChR α7/RIC-3, Eurofins Pharma, St. Charles, Mo.) was cultured in 175 cm^2 triple-layer tissue culture flasks to no more than 90% confluency in DMEM/F-12 growth media supplemented with 10% heat-inactivated fetal bovine serum, 1% non-essential amino acids, 0.625 μg/mL Puromycin, and 400 μg/mL Geneticin. Immediately prior to assay, cells were detached by first aspirating growth media, rinsing with Dulbecco's phosphate buffered saline, and then adding 10 mL of Accutase (Innovative Cell Technologies, San Diego, Calif.) to the flask and then incubating at 37° C. for 5 minutes. Detached cells were then recovered by the addition of 40 mL of CHO-serum-free media supplemented with 25 mM HEPES, and rocked gently in a 50 mL conical tube for 20 minutes prior to patch-clamp assay. […] The cell suspension was added to the cell inlet wells on an IonFlux HT population patch plate which had previously been rinsed and primed with deionized H2O. Test compounds were serially diluted in DMSO and then resuspended to the final test concentration in external recording solution, with, or without 40 μM acetylcholine added to the external recording solution; test compounds were then transferred to the lonFlux HT population patch plate. Internal recording solution (110 mM TrisPO4, 28 mM TrisBase, 0.1 mM CaCl2, 2 mM MgCl2, 11 mM EGTA, 4 mM MgATP) was added to the internal recording solution inlet wells on the IonFlux HT patch plate previously loaded with cells and test compounds, and the plate loaded into the IonFlux HT instrument. A protocol was executed on the IonFlux HT to trap the cells, break into the cells, and establish the whole-cell recording configuration; cells were voltage-clamped at a holding potential of −60 mV for the duration of the experiment, all experiments were conducted at room temperature, and the IonFlux HT injection pressure was 8 psi for solution applications. Upon establishing the whole-cell configuration, external recording solution was perfused into the recording chambers for 120 seconds and then 40 μM acetylcholine was applied for 1 second and immediately washed off with external recording solution for 60 seconds. The 40 μM acetylcholine-evoked α7 current served as the current response to which subsequent test compound effects, in the presence, or in the absence of 40 μM acetylcholine would be quantified relative to. Next, test compounds were evaluated at multiple concentrations for their ability to induce, or modulate α7 current responses; three concentrations of test compound were evaluated in ascending dose fashion per recording.

Sequence of human α7 nAChR (P36544 23-502): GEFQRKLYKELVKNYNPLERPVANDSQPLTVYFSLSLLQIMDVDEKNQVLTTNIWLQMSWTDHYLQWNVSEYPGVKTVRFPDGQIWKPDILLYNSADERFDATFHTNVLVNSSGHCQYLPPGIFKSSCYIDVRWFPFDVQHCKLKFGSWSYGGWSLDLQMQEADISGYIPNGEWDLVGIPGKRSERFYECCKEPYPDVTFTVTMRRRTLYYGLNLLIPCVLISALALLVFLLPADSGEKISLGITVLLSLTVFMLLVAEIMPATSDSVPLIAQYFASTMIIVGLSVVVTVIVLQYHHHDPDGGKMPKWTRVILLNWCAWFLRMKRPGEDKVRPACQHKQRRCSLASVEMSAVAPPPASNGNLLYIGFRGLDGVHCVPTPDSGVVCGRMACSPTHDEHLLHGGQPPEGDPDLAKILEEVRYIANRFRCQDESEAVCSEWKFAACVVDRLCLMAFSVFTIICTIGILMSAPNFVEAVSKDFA

Structure (SMILES)	EC50 (read-out: α7 nAChR EC50) [µM]	EC50 (read-out: α7 nAChR Potency) [µM]
CC1(C)[C@@H](c2ccc(S(N)(=O)=O)nc2)[C@@H]1c1nc(CC2CC2)no1 [Example B10, 5-{(1S,3S)-3-[3-(Cyclopropylmethyl)-1,2,4-oxadiazol-5-yl]-2,2-dimethylcyclopropyl}pyridine-2-sulfonamide]	1.6	0.5 to 5
Cc1nc(S(N)(=O)=O)ccc1[C@@H]1C[C@H]1c1nc(-c2ccccc2)no1 (relative stereo) [Example 5, 6-Methyl-5-[trans-2-(3-phenyl-1,2,4-oxadiazol-5-yl)cyclopropyl]pyridine-2-sulfonamide]	3.4	0.5 to 5
CC1(C)[C@@H](c2ccc(S(N)(=O)=O)nc2)[C@@H]1c1ncc(C2CCCC2)o1 [Example B14, 5-[(1S,3S)-3-(5-Cyclopentyl-1,3-oxazol-2-yl)-2,2-dimethylcyclopropyl]pyridine-2-sulfonamide]	0.59	0.5 to 5
CC1(C)[C@@H](c2ccc(S(N)(=O)=O)cn2)[C@@H]1c1nc(C2CC(F)(F)C2)no1 (racemic) [Example G5, 6-{trans-3-[3-(3,3-Difluorocyclobutyl)-1,2,4-oxadiazol-5-yl]-2,2-dimethylcyclopropyl}pyridine-3-sulfonamide]	3.6	0.5 to 5
CC1(C)[C@@H](c2nc(-c3ccccc3)no2)[C@@H]1c1ncc(S(N)(=O)=O)s1 [Example 6, 2-[(1S,3S)-2,2-dimethyl-3-(3-phenyl-1,2,4-oxadiazol-5-yl)cyclopropyl]-1,3-thiazole-5-sulfonamide]	0.59	0.5 to 5
NS(=O)(=O)c1ccc(C2CC2c2nc(-c3ccccc3)no2)cn1 (racemic) [Example C5, 5-[trans-2-(3-Phenyl-1,2,4-oxadiazol-5-yl)cyclopropyl]pyridine-2-sulfonamide]	1.1	0.5 to 5
CC1(C)[C@@H](c2ccc(S(N)(=O)=O)nc2)[C@@H]1c1nc(C2CC2)no1 [Example B11, 5-[(1S,3S)-3-(3-Cyclopropyl-1,2,4-oxadiazol-5-yl)-2,2-dimethylcyclopropyl]pyridine-2-sulfonamide]		0.5 to 5
CC1(C)[C@@H](c2nc(-c3ccccc3)no2)[C@@H]1c1ncc(S(N)(=O)=O)s1 (racemic) [Example D4, 2-[trans-2,2-Dimethyl-3-(3-phenyl-1,2,4-oxadiazol-5-yl)cyclopropyl]-1,3-thiazole-5-sulfonamide]	0.36	0.1 to 0.5
CC1(C)[C@@H](c2ccc(S(N)(=O)=O)cn2)[C@@H]1c1nc(C2CCCC2)no1 [Example F3, 6-[(1S,3S)-3-(3-Cyclopentyl-1,2,4-oxadiazol-5-yl)-2,2-dimethylcyclopropyl]pyridine-3-sulfonamide]	0.34	0.1 to 0.5
CC1(C)[C@@H](c2nc(C3CC(F)(F)C3)no2)[C@@H]1c1ncc(S(N)(=O)=O)s1 (racemic) [Example D6, 2-{trans-3-[3-(3,3-Difluorocyclobutyl)-1,2,4-oxadiazol-5-yl]-2,2-dimethylcyclopropyl}-1,3-thiazole-5-sulfonamide]		5 to 50
CC1(C)[C@@H](c2ccc(S(N)(=O)=O)nc2)[C@@H]1c1noc(-c2c(F)cccc2F)n1 (racemic) [Example C12, 5-{trans-3-[5-(2,6-Difluorophenyl)-1,2,4-oxadiazol-3-yl]-2,2-dimethylcyclopropyl}pyridine-2-sulfonamide]	1.2	0.5 to 5
CC(C)c1noc([C@H]2[C@H](c3ccc(S(N)(=O)=O)cn3)C2(C)C)n1 [Example F14, 6-{(1S,3S)-2,2-Dimethyl-3-[3-(propan-2-yl)-1,2,4-oxadiazol-5-yl]cyclopropyl}pyridine-3-sulfonamide]	1.6	0.5 to 5
CC1(C)[C@@H](c2ccc(S(N)(=O)=O)nc2)[C@@H]1c1nc2ccccc2o1 (relative stereo) [Example C7, 5-[trans-3-(1,3-Benzoxazol-2-yl)-2,2-dimethylcyclopropyl]pyridine-2-sulfonamide]	1.6	0.5 to 5
